From patent US8148058B2, “Method for screening allergic disease-related molecule and cell lines to be used in the method” (Tokyo University of Science Educational Foundation …, priority 2006, dated 2012)

Key:
RCCM cells = test: Proliferation of RCCM cells, 3H-thymidine uptake; format: cell-based, mouse; details: 48 hours culture, then 12 hours 3H-thymidine; for proliferation of RCCM cells in response to inhibitor (uptake amount of 3H-thymidine): 1/2 serial dilutions starting with 10 ng/ml
Method: (§1) R cells, N62.5 cells, or RCCM cells obtained in Example 1 were placed in each well of a 96-well microplate at a seeding density of 1.5×10^4 cells/well. A culture medium in which the content of RCGF was changed was used and the sensitivities of the cells to RCGF were confirmed.
(§2) The concentrations of RCGF were set to 10 v/v %, 0.1 v/v %, and 0 v/v %. The cells were cultured in an RPMI 1640 culture medium containing 10% by volume of serum at 37° C. in 5% CO2 atmosphere for 48 hours. Thereafter, ^3H-thymidine was added to the culture medium so as to give a final concentration of 0.5 μCi/ml, and the resultant was further cultured for 12 hours and the uptake amount of ^3H during the time was measured. After the reaction, the uptake amount of ^3H-thymidine was measured using MicroBeta TRIL UX (manufactured by WALLAC). In FIGS. 1 (A) to (C), black rhombuses indicate RCCM cells, black squares indicate R cells, and black triangles indicate N62.5 cells.
R cells, N62.5 cells, or RCCM cells obtained in Example 1 were placed in each well of a 96-well microplate at a seeding density of 1.5×10^4 cells/well.
(§3) In this regard, the concentration of RCGF was based on ½ serial dilutions (starting with 80% by volume of the culture medium). […] Thereafter, ^3H-thymidine was added to the culture medium so as to give a final concentration of 0.5 μCi/ml, and the resultant was further cultured for 12 hours and the uptake amount of ^3H during the time was measured. […]
R cells, N62.5 cells, or RCCM cells obtained in Example 1 were placed in each well of a 96-well microplate at a seeding density of 1.5×10^4 cells/well in the same manner as described in Example 4. ½ serial dilutions (starting with 10 ng/ml) of phorbol 12-myristate 13 acetate (PMA) were added to each well, and culturing was performed at 37° C. in 5% CO2 atmosphere for 48 hours. Thereafter, ^3H-thymidine was added to the culture medium so as to give a final concentration of 0.5 μCi/ml, which was further cultured for 12 hours and the uptake amount of ^3H during the time was measured. […]

R cells = test: Proliferation of R cells, 3H-thymidine uptake; format: cell-based, mouse; details: 1/2 serial dilutions starting with 10 ng/ml; 48 hours culture, then 12 hours 3H-thymidine
Method: as §1
as §2, with “cells. […]” for “cells.”
as §3

P185 cells = test: Proliferation of P185 cells (basophil-like cell line), 3H-thymidine uptake; format: cell-based; details: 1/2 serial dilutions starting with 10 ng/ml; 48 hours culture, then 12 hours 3H-thymidine
Method: R cells, N62.5 cells, or RCCM cells obtained in Example 1 and P185 cells (a basophil-like cell line) were placed in each well of a 96-well microplate at a seeding density of 1.5×10^4 cells/well in the same manner as described in Example 4. ½ serial dilutions (starting with 10 ng/ml) of LY294002 (a PI3K inhibitor; Cat No. FA-002, manufactured by SuperArray) and Rottlerin (a PKC inhibitor; Cat No. 557370, manufactured by CALBIOCHEM) were added to each well, which was cultured at 37° C. in a 5% CO2 atmosphere for 48 hours. Thereafter, ^3H-thymidine was added to the culture medium so as to give a final concentration of 0.5 μCi/ml, and culturing was further performed for 12 hours and the uptake amount of ^3H during the time was measured. In FIGS. 7 and 8, black squares indicate R cells, black triangles indicate N62.5 cells, black rhombuses indicate RCCM cells, and black circles indicate P185. FIG. 7 is a graph showing the response of respective cells to LY294002. FIG. 8 is a graph showing the response of respective cells to Rottlerin.

N62.5 cells = test: Proliferation of N62.5 cells, 3H-thymidine uptake; format: cell-based, mouse; details: 48 hours culture, then 12 hours 3H-thymidine
Method: as §1
as §2, with “cells. […]” for “cells.”
as §3

R cell = test: Maintenance / growth potential of R cells in culture with cytokines or RCGF; format: cell-based, mouse
Method: Further, anti-Thy1.2 antibodies (manufactured by Pharmingen) and complement (rabbit serum, manufactured by Pel-Freeze) were respectively added to the resulting culture at 1 μg/ml and at a final concentration of 10% by volume per 1×10^7 cells/100 μl. After about 30 minutes of reaction, […] therefrom and the cultivation was continued while the RCGF was added at various concentrations.
Thereafter, respective cell lines were cultured in accordance with the dilution method over the course of three weeks and cloned.

In the case of CCCCCCCCCCCCCC(=O)O[C@@H]1[C@@H](C)[C@@]2(O)[C@@H](C=C(CO)C[C@]3(O)C(=O)C(C)=C[C@@H]23)[C@@H]2C(C)(C)[C@]12OC(C)=O [PMA, phorbol 12-myristate 13 acetate], the “proliferation of RCCM cells in response to inhibitor (uptake amount of 3H-thymidine)” value (RCCM cells) is reported as “suppressed by a low concentration”.

With CC(=O)c1c(O)c(C)c(O)c(Cc2c(O)c3c(c(C(=O)/C=C/c4ccccc4)c2O)OC(C)(C)C=C3)c1O [Rottlerin] the “proliferation of R cells in response to inhibitor (uptake amount of 3H-thymidine)” value (R cells) was “rapidly suppressed”, the “proliferation of RCCM cells in response to inhibitor (uptake amount of 3H-thymidine)” value (RCCM cells) was “rapidly suppressed” and the “proliferation of basophil-like cell line P185 in response to inhibitor (uptake amount of 3H-thymidine)” value (P185 cells) was “growth inhibition”. The “proliferation of N62.5 cells in response to inhibitor (uptake amount of 3H-thymidine)” value (N62.5 cells; 1/2 serial dilutions starting with 10 ng/ml) was “rapidly suppressed”.

With GM-CFS: cytokine the “sensitivity / growth potential of R cell against cytokine” value (“sensitivity / growth potential” for short) (R cell) was “does not show sensitivity”.

For IFN-γ: cytokine, the “sensitivity / growth potential” value (R cell) was “does not show sensitivity”.

In the case of IL-5: interleukin, Th2 type cytokine, the “sensitivity / growth potential” value (R cell) is reported as “high growth potential”.

IL-6: interleukin, Th2 type cytokine was tested, and the “sensitivity / growth potential” value (R cell) was “high growth potential”.

For IL-9: interleukin, Th2 type cytokine, the “sensitivity / growth potential” value (R cell) was “high growth potential”.

For IL-13: interleukin, Th2 type cytokine, the “sensitivity / growth potential” value (R cell) was “high growth potential”.

B1: IL-4: recombinant cytokine, manufactured by PeproTech (protein, UniProt P05112 25-153, looked up)
Interleukin-4: HKCDITLQEIIKTLNSLTEQKTLCTELTVTDIFAASKNTTEKETFCRAATVLRQFYSHHEKDTRCLGATAQQFHRHKQLIRFLKRLDRNLWGLAGLNSCPVKEANQSTLENFLERLKTIMREKYSKCSS
B1 was tested, and the “proliferative response of RCCM cells to RCGF / cytokines (uptake amount of 3H-thymidine)” value (RCCM cells; various concentrations) was “no difference in growth potential”, the “sensitivity / growth potential” value (R cell) was “high growth potential” and the “proliferative response of N62.5 cells to RCGF / cytokines (uptake amount of 3H-thymidine)” value (N62.5 cells; various concentrations) was “did not show sensitivity”.

B2: IL-7: cytokine (protein, UniProt P13232 26-177, looked up)
Interleukin-7: DCDIEGKDGKQYESVLMVSIDQLLDSMKEIGSNCLNNEFNFFKRHICDANKEGMFLFRAARKLRQFLKMNSTGDFDLHLLKVSEGTTILLNCTGQVKGRKPAALGEAQPTKSLEENKSLKEQKKLNDLCFLKRLLQEIKTCWNKILMGTKEH
In the case of B2, the “sensitivity / growth potential” value (R cell) is reported as “does not show sensitivity”.

B3: IL-10: cytokine (protein, UniProt P22301 19-178, looked up)
Interleukin-10: SPGQGTQSENSCTHFPGNLPNMLRDLRDAFSRVKTFFQMKDQLDNLLLKESLLEDFKGYLGCQALSEMIQFYLEEVMPQAENQDPDIKAHVNSLGENLKTLRLRLRRCHRFLPCENKSKAVEQVKNAFNKLQEKGIYKAMSEFDIFINYIEAYMTMKIRN
With B3 the “sensitivity / growth potential” value (R cell) was “does not show sensitivity”.
